A word on the Ki: it is a measure of affinity in units of concentration, obtained from inhibition or displacement. In general, melting point refers to the temperature, or range, at which the solid turns liquid.

SMILES strings stand for the structures.

This is an account of results in patent US6335366B2, “Naphthyloxy acetic acid derivatives and a pharmaceutical composition comprising them as an active ingredient” (Ono Pharmaceutical Co., Ltd., priority 1996, dated 2002).

Series [1] concerns the target T1, prostanoide receptor subtype (mouse EP3α) (Mus musculus, UniProt P30557).
T1 construct: expressed in transfected cells; host or cells: CHO cells (membrane fraction)
T1 sequence (P30557 1-365): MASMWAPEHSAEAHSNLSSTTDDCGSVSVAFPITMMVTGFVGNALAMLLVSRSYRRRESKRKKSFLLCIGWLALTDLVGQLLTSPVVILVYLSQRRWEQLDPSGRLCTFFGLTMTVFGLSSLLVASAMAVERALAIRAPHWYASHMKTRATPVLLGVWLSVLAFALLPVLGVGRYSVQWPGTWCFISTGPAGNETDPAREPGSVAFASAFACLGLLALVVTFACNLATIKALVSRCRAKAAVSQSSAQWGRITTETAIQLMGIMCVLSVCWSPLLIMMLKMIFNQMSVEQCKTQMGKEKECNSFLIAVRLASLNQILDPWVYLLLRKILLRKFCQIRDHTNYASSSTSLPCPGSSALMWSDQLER
Put plainly: Binding assay using expression cell of prostanoide receptor subtype ([3H]-PGE2 competition, CHO cell membrane fraction). The settings on record: [3H]-PGE2 2.5 nM; membrane fraction of CHO cells expressing mouse EP3α; Ki = IC50/(1+([C]/Kd)); read-out: dissociation constant Ki. The procedure:
For example, in standard laboratory test, the effects of the compounds of the present invention were confirmed by inhibitory effect on binding PGE2 using expression cell of receptor.
(I) Binding Assay using Expression Cell of Prostanoide Receptor Subtype
The preparation of membrane fraction was carried out according to the method of Sugimoto et al (J. Biol. Chem. 267, 6463-6466 (1992)), using expression CHO cell of prostanoide receptor subtype (mouse EP3α).
The standard assay mixture contained membrane fraction (0.5 mg/ml), [^3H]-PGE2 in a final volume of […] was incubated for 1 hour at room temperature. The reaction was terminated by addition of 3 ml of ice-cold buffer. The mixture was rapidly filtered through a glass filter (GF/B). The radioactivity associated with the filter was measured by liquid scintillation counting.
Kd and Bmax values were determined from Scatchard plots (Ann. N.Y. Acad. Sci., 51, 660 (1949)). Non-specific binding was calculated as the bond in the presence of an excess ([…]) of unlabeled PGE2. In the experiment for competition of specific [^3H]-PGE2 binding by the compounds of the present invention, [^3H]-PGE2 was added at a concentration of 2.5 nM and the compounds of the present invention were at a concentration of 1 mM. Buffer: 10 mM potassium phosphate (pH6.0), 1 mM EDTA, 10 mM MgCl2, 0.1 M NaCl.
The dissociation constant Ki (μM) of each compound was calculated by the following equation.

As for `O=C(O)COc1cccc2c(CCS(=O)(=O)CC(O)COc3ccccc3)cccc12` (stereo not shown) [3(2), 2-{5-[2-(2RS-Hydroxy-3-phenoxypropylsulfonyl)ethyl]-1-naphthyloxy}acetic Acid], in series [1], the Ki is 9.9 nM.
Compound `O=C(O)COc1cccc2c(CCSC[C@H](O)COc3ccccc3)cccc12` [3(3), 2-{5-[2-(2R-Hydroxy-3-phenoxypropylthio)ethyl]-1-naphthyloxy}acetic Acid] had a melting point of 114 to 115.5 °C.
The compound `O=C(O)COc1cccc2c(CCSCC(O)COc3ccccc3)cccc12` (stereo not drawn) [3(4), 2-{5-[2-(2S-Hydroxy-3-phenoxypropylthio)ethyl]-1-naphthyloxy}acetic Acid] showed a melting point of 114 to 115.5 °C.
Turning to `O=C(O)COc1cccc2c(CSCC(O)COc3ccccc3)cccc12` (stereo not shown) [3(5), 2-[5-(2RS-Hydroxy-3-phenoxypropylthio)methyl-1-naphthyloxy]acetic Acid], the melting point was 105 to 107 °C.
Take `O=C(O)COc1cccc2c(C[S+]([O-])CC(O)COc3ccccc3)cccc12` (stereo not shown) [3(6), 2-[5-(2RS-Hydroxy-3-phenoxypropylsulfinyl)methyl-1-naphthyloxy]acetic Acid]: the Ki in series [1] was determined as 150 nM.
The compound `O=C(O)COc1cccc2c(CS(=O)(=O)CC(O)COc3ccccc3)cccc12` (stereo not shown) [3(7), 2-[5-(2RS-Hydroxy-3-phenoxypropylsulfonyl)methyl-1-naphthyloxy]acetic Acid] had a melting point of 186 to 190 °C.
As for `O=C(O)COc1cccc2c(CCCSCC(O)c3ccccc3)cccc12` (stereo not shown) [3(8), 2-{5-[3-(2RS-Hydroxy-2-phenylethylthio)propyl]-1-naphthyloxy}acetic Acid], in series [1], the Ki is 2000 nM.
`O=C(O)COc1cccc2c(CCCS(=O)(=O)/C=C/c3ccccc3)cccc12` [5(1), 2-[5-(3-Styrylsulfonylpropyl)-1-naphthyloxy]acetic Acid]: the Ki in series [1] worked out at 8.6 nM.
Take `O=C(O)COc1cccc2c(CCSCC(O)COc3ccccc3)cccc12` (stereo not shown) [compound 3]: the Ki in series [1] was 48 nM.
Consider `O=C(O)COc1cccc2c(CCC[S+]([O-])/C=C/c3ccccc3)cccc12` (stereo not shown) [compound 5], for which, in series [1], the Ki was 80 nM.
